Data set [1] has as its system Plasmodium falciparum. Nature of the data set: Antimicrobial activity against chloroquine-sensitive Plasmodium falciparum 3D7 ring stage parasite assessed as reduction in parasite proliferation after 96 hrs in presence of 50 uM pantothenate by SYBR Safe DNA gel staining based assay. It counts as functional, organism-based. The settings on record: 3D7, 96 h.
The subject of data set [2] is Staphylococcus aureus. Put plainly: Antimicrobial activity against oxacillin-susceptible Staphylococcus aureus ATCC 29213 after 18 hrs by microdilution broth method. It counts as functional. The note with it: ATCC 29213, 18 h.
The next data set deals with HFF. Nature of the data set: Cytotoxicity against HFF cells at 1 to 100 uM after 48 hrs by SYBR Safe DNA gel staining based assay. The note with it: human. It counts as cell-based.
Data set [3] has as its system Staphylococcus aureus. Nature of the data set: Antimicrobial activity against oxacillin-resistant Staphylococcus aureus 43300 at 500 uM after 18 hrs by microdilution broth method. It counts as functional, organism-based. In general terms: Dilution methods test growth across graded concentrations, often in twofold steps.
Data set [4] concerns Plasmodium falciparum. Nature of the data set: Antimicrobial activity against chloroquine-sensitive Plasmodium falciparum 3D7 ring stage parasite assessed as reduction in parasite proliferation after 96 hrs in presence of 1 uM pantothenate by SYBR Safe DNA gel staining based assay. It counts as functional, organism-based. The note with it: 3D7, 96 h.
Data set [5] relates to Staphylococcus aureus. Nature of the data set: Antimicrobial activity against oxacillin-resistant Staphylococcus aureus 43300 after 18 hrs by microdilution broth method. It counts as functional. The settings on record: Staphylococcus aureus, 43300, 18 h.
The test system of data set [6] is Staphylococcus aureus. Nature of the data set: Antimicrobial activity against oxacillin-susceptible Staphylococcus aureus ATCC 29213 at 500 uM after 18 hrs by microdilution broth method. It counts as functional, organism-based.

Each structure is given as a SMILES string. pIC50: −log10 of the molar value. Values after ≈ are worked out from the molar mass of the structure shown. Active and inactive are the calls of the source.

The pIC50 is the IC50 on a negative log10 scale, so that one unit is a factor of ten. What is called MIC is the smallest concentration in the dilution series that meets the test's criterion for growth inhibition. Low readings indicate inhibition by little substance, high ones a need for much substance. Consider `C=CC[C@@](C)(CO)[C@@H](O)C(=O)NCCC(=O)NCCCCC`, for which the pIC50 in the data set with Plasmodium falciparum [1] was 4.89; with Plasmodium falciparum [4], 5.62. For the same compound, the MIC against Staphylococcus aureus [2] and against Staphylococcus aureus [5] was 3.2 µM (≈ 1.01 µg/mL) in each case. In addition, in the data set with HFF, the Activity result is given as “Non-toxic”. Also, the result in the data set with Staphylococcus aureus [3] and in the data set on Staphylococcus aureus [6] was inactive.
`C=CC[C@](C)(CO)[C@@H](O)C(=O)NCCC(=O)NCCCCC`: the Activity entry in the data set with HFF was “Non-toxic”. In the data set with Plasmodium falciparum [4], the pIC50 is 4.51.
